Test results published in patent publication US20110045101A1, “FUNGICIDAL SUBSTITUTED AZOLES” (E.I. Du Pont De Nemours and Company, priority 2009, published 2011).
Marks after values point to notes of the source that are not given here.

How the values were obtained:
Type in all cases: in vivo
Settings in all cases: 100 = 100% disease control
Septoria nodorum = assay: Test F: wheat glume blotch on wheat seedlings, sprayed the day before inoculation, visual disease rating
Method in brief: (§1)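 Acetone solution (3% of final volume) of each compound is suspended in 50/50 acetone/water with 250 ppm Trem® 014. Plants are sprayed to run-off at 200 ppm, equivalent to 500 g/ha, or at 40 ppm for starred values.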

[1] = tested on: Puccinia recondita f. sp. tritici; assay: Test I: wheat leaf rust on wheat seedlings, sprayed the day before inoculation, visual disease rating
Method in brief: as §1

Septoria tritici = assay: Test G: wheat leaf blotch on wheat seedlings, sprayed the day before inoculation, visual disease rating
Method in brief: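 Wheat seedlings were sprayed with compound suspensions, 200 ppm unless starred (40 ppm). After next-day spore inoculation, plants spent 48 h saturated at 24° C, then 19 days at 20° C, when disease was rated visually.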

Botrytis cinerea = assay: Test C: tomato Botrytis on tomato seedlings, sprayed the day before inoculation, visual disease rating
Method in brief: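 Disease ratings refer to tomato seedlings treated by run-off spraying with compound suspensions, mostly 200 ppm (500 g/ha equivalent) and in marked cases 40 ppm. Carrier: acetone/purified water 50/50 with 250 ppm polyhydric alcohol ester surfactant, after predissolving in acetone.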

[2] = tested on: Erysiphe graminis f. sp. tritici; assay: Test J: wheat powdery mildew on wheat seedlings, sprayed the day before inoculation, visual disease rating
Method in brief: as §1

[3] = tested on: Puccinia recondita f. sp. tritici; assay: Test H: wheat leaf rust, test suspension sprayed after inoculation of wheat seedlings, visual disease rating
Method in brief: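 Wheat seedlings inoculated with P. recondita spores, held 24 h saturated at 20 °C, then 2 days in growth chamber at 20 °C; compound suspension (acetone/water with Trem 014) sprayed to run-off afterwards. Rated visually; 200 ppm (≈500 g/ha) unless marked *, which denotes 40 ppm.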

Alternaria solani = assay: Test D: tomato early blight, sprayed the day before inoculation, visual disease rating
Method in brief: as §1

[4] = 200 ppm, 0 = no control relative to controls

SMILES	Test F disease control rating (Septoria nodorum; 40 ppm (marked *))	Test I disease control rating ([1]; 40 ppm (marked *))	Test G disease control rating (Septoria tritici; 40 ppm (marked *))	Test C disease control rating (Botrytis cinerea; 40 ppm (marked *))	Test J disease control rating ([2]; 40 ppm (marked *))	Test H disease control rating ([3]; 40 ppm (marked *))	Test D disease control rating (Alternaria solani; 40 ppm (marked *))	Test F disease control rating (Septoria nodorum; [4]) [%]	Test I disease control rating [1, 4] [%]	Test G disease control rating (Septoria tritici; [4]) [%]	Test C disease control rating (Botrytis cinerea; [4]) [%]	Test J disease control rating [2, 4] [%]	Test H disease control rating [3, 4] [%]	Test D disease control rating (Alternaria solani; [4]) [%]
COc1cc(F)c(-c2c(Cl)nc(Cl)n2-c2ccc(C)c(Cl)c2)c(F)c1 [compound 502]	60* %	98* %	93* %	90* %	100* %	0* %	92* %	–	–	–	–	–	–	–
Cc1nc(Cl)n(-c2ccc(F)cc2Cl)c1-c1ccc(Cl)cc1 [compound 503]	–	–	–	–	–	–	–	99	100	96	99	100	0	99
COc1cc(F)c(-c2c(Br)ncn2-c2ccc(F)cc2)c(F)c1 [compound 506]	–	–	–	–	–	–	–	92	100	99	100	99	78	100
Fc1ccc(-n2cnc(Br)c2-c2c(F)cc(F)cc2F)cc1 [compound 507]	–	–	–	–	–	–	–	0	100	88	100	98	0	95
Fc1ccc(-n2cnc(Br)c2-c2c(F)ccc(F)c2Cl)cc1 [compound 508]	–	–	–	–	–	–	–	0	99	94	100	99	78	100
COc1ccc(F)c(-c2c(Br)nc(Cl)n2-c2ccc(Cl)cc2)c1F [compound 510]	–	–	–	–	–	–	–	100	98	99	99	100	9	100
COc1ccc(F)c(-c2c(Br)nc(Br)n2-c2ccc(C)cc2)c1F [compound 511]	–	–	–	–	–	–	–	99	99	99	99	100	0	99
COc1ccc(Cl)c(-c2c(Cl)nc(Br)n2-c2ccc(Cl)cc2)c1F [compound 512]	–	–	–	–	–	–	–	0	79	98	97	99	40	98
COc1cc(F)c(-c2c(Cl)nc(Cl)n2-c2cccnc2Cl)c(F)c1 [compound 513]	–	–	–	–	–	–	–	100	100	100	99	100	100	100
COc1cc(F)c(-c2c(Cl)nc(Cl)n2-c2ccc(Cl)nc2OC)c(F)c1 [compound 514]	–	–	–	–	–	–	–	73	93	100	99	99	0	99
COc1cc(F)c(-c2c(Cl)nc(Cl)n2-c2ccc(OC)nc2Cl)c(F)c1 [compound 515]	–	–	–	–	–	–	–	0	100	100	97	100	100	99
COc1cc(F)c(-c2c(Cl)nc(Cl)n2-c2ccc(OC)nc2)c(F)c1 [compound 516]	–	–	–	–	–	–	–	100	100	100	97	100	100	100
COc1ccc(F)c(-c2c(Br)nc(Cl)n2-c2ccc(C)cc2)c1F [compound 517]	–	–	–	–	–	–	–	96	99	98	100	100	0	100
COc1ccc(Cl)c(-c2c(Cl)nc(Cl)n2-c2ccc(Cl)cc2)c1F [compound 518]	–	–	–	–	–	–	–	99	98	98	100	100	0	99
COc1ccc(F)c(-c2c(Cl)nc(C)n2-c2ccc(Cl)cc2)c1Cl [compound 519]	–	–	–	–	–	–	–	100	100	97	100	100	0	100
COc1ccc(F)c(-c2c(Cl)ncn2-c2ccc(C)c(F)c2)c1F [compound 520]	–	–	–	–	–	–	–	0	99	97	100	100	0	100
COc1cc(F)c(-c2c(C)nc(C)n2-c2ccc(C)cc2)c(F)c1 [compound 521]	0* %	98* %	98* %	99* %	90* %	0* %	99* %	–	–	–	–	–	–	–
COc1cc(F)c(-c2c(C)nc(C)n2-c2ccc(F)cc2)c(F)c1 [compound 522]	0* %	99* %	98* %	100* %	96* %	0* %	100* %	–	–	–	–	–	–	–
COc1cc(F)c(-c2c(Br)nc(Br)n2-c2ccc(F)cc2)c(F)c1 [compound 523]	0* %	99* %	98* %	100* %	97* %	0* %	100* %	–	–	–	–	–	–	–
COc1cc(F)c(-c2c(Br)nc(Br)n2-c2ccc(C)cc2)c(F)c1 [compound 524]	60* %	99* %	98* %	99* %	–	85* %	100* %	–	–	–	–	97	–	–
